According to publication PMC5975898, “Cationic porphyrins are tunable gatekeepers of the 20S proteasome” (Chemical Science, 2015):
Read-outs that look alike come from different tables or passages of the source.

Legend:
[1] = target: T1, human 20S proteasome ChT-L activity; assay: 20S proteasome ChT-L activity inhibition assay (Suc-LLVY-AMC); format: biochemical
T1 construct: purchased Boston Biochem
Protocol: (§1) Purified human 20S proteasome and the fluorogenic substrates Suc-LLVY-AMC, Z-Leu-Leu-Glu-AMC, and Ac-Arg-Leu-Arg-AMC used to test the ChT-L, PGPH-L, and T-L activity, respectively, were purchased from Boston Biochem (Cambridge, MA, USA).
(§2) Proteasome activity assays were performed in vitro by mixing 20S proteasome (2 nM) with 100 μM of the proper fluorogenic peptide in the assay buffer (i.e., 25 mM HEPES, 0.5 mM EDTA, pH 7.6) in a 384 multiwell black plate. […] A minimum of three replicates were performed for each data point. Data are expressed as normalized percentages of residual activity considering the slope of the control (fluorogenic peptide/proteasome in the absence of inhibitors) as 100% of proteasome activity. Dose–response plots of the residual proteasome activity in the presence of increasing concentration of inhibitor provides a quantitative estimate of its potency. […] The estimation of the IC50 is based on a nonlinear fit with the equation:2 [drawing 2]
(§3) The IC50 values and their standard errors were deduced from the fitting. […] The resulting catalytic parameter are Km, corresponding to the apparent affinity constant (or Michaelis–Menten constant) of substrate for the free enzyme (to form the ES complex), and kcat, corresponding to the velocity of the rate-limiting step during the enzymatic activity. […] The mechanism of inhibition of the 20S proteasome ChT-L activity by the inhibitors was analyzed by modified double-reciprocal plot, as from the following equations for the different inhibitory mechanisms:4a [drawing 4]

[2] = target: T2, human 20S proteasome T-L activity; assay: 20S proteasome T-L activity inhibition assay (Ac-Arg-Leu-Arg-AMC); format: biochemical
T2 construct: purchased Boston Biochem
Protocol: as §1, §2, §3

[3] = target: T3, human 20S proteasome PGPH-L activity; assay: 20S proteasome PGPH-L activity inhibition assay (Z-Leu-Leu-Glu-AMC); format: biochemical
T3 construct: purchased Boston Biochem
Protocol: as §1, §2, §3

[4] = tested on: T1, human 20S proteasome ChT-L activity; assay: Steady-state enzyme kinetics of ChT-L inhibition (Lineweaver-Burk plot); format: biochemical
Excerpt: Analysis of enzyme kinetics may provide valuable insights in the understanding of inhibition mechanisms. To this aim, we have addressed the inhibition mechanism of the title compound H2T4 by determining the ChT-L activity of the CP at different concentrations of substrate and inhibitor. Since H2T4 inhibits all the three proteolytic functions of the CP with a similar potency, one can assume that the inhibition mechanism is similar for all enzymatic activities.
Fig. 6 Double reciprocal Lineweaver–Burk plot of substrate enzymatic 20S processing in the absence of inhibitor (○) and in the presence of 0.5 μM (×), 1 μM (+), 3 μM (*), 10 μM (⊗) and 20 μM inhibitor (⊕) for various concentrations of the substrate Suc-LLVY-AMC (from 6 to 100 μM).
The IC50 values and their standard errors were deduced from the fitting. Data relative to CP activities at different substrate/inhibitor concentrations have been analyzed by a double reciprocal Lineweaver–Burk plot, according to the following equation:3 [drawing 3] where [E0] is the enzyme concentration, ν is the observed velocity (expressed as moles of substrate cleaved per time interval unit) and [S] is the substrate concentration. […] The mechanism of inhibition of the 20S proteasome ChT-L activity by the inhibitors was analyzed by modified double-reciprocal plot, as from the following equations for the different inhibitory mechanisms:4a [drawing 4] […]

[5] = tested on: T1, human 20S proteasome ChT-L activity; assay: Pre-steady-state kinetics of ChT-L inhibition (time course of fluorescent product, Runge-Kutta simulation); format: biochemical; settings: 2 nM 20S, 100 μM Suc-LLVY-AMC; constrained to KI = k–I/k+I
Protocol: The kinetic parameters of H2T4 binding to the CP have also been determined as a function of time (as described in Experimental). Fig. 7 reports the time evolution of the fluorescent product obtained by mixing at t = 0 both the substrate (100 μM final concentration) and H2T4 at different concentrations, as reported in the figure legend; the fluorescent signal was transformed into molar concentrations of fluorescent product through a calibration curve resulting from the complete processing of known concentration of substrate. […]
The interaction of H2T4 with 20S proteasome has been also investigated from the pre-steady-state kinetic standpoint. Briefly, these assays were performed without incubation time, by direct addition of different concentrations of H2T4 in samples where the Ch-L activity was already being monitored. The extent and the rate of inhibition were determined by following the time-dependent fluorescent signal of the cleaved substrate for 25 additional minutes. Data have been analyzed according to a second-order Runge–Kutta simulation procedure based on a simple competitive inhibition mechanism, such as in Scheme 1.
The time evolution of each species reported in Scheme 1 was calculated at discrete time intervals dt. […]

20S proteasome = tested on: T4, 20S proteasome; assay: Stopped-flow UV spectroscopy of H2T4 binding to 20S proteasome; set-up: species or system human; settings: 421 nm, 37 °C
T4 construct: purchased Boston Biochem
Excerpt: In order to find a closer correlation between experimental observations and molecular modeling we have carried out a kinetic investigation of the interaction between H2T4 and 20S proteasome by stopped-flow. […] Data have been analyzed according to the following equation1 [drawing 1] where ΔODobs is the observed optical density change at a given time, r is the total number of exponentials during the reaction time course, ΔODi is the optical density change corresponding to the exponential i, ki is the rate constant associated to the exponential i, t is the time.
Fig. 11 Optical density changes at 421 nm for the mixing at 37 °C of 1 nM 20S proteasome with different concentrations of H2T4, namely 1 μM (curve a), 2 μM (curve b) and 5 μM (curve c). Continuous lines correspond to the non-linear least-squares fitting of data with two exponentials according to eqn (1), employing parameters reported in Table 1.
However, it is important to outline that kinetics reported in Fig. 11 are characterized by a multiphasic pattern with different patterns of concentration dependence of the rate constants. […] Therefore, on the basis of molecular modeling studies, these kinetic data can be accounted for by assuming that there is a first faster interaction with the N-terminal tails of the α subunits, characterized by k1, likely corresponding to the first encountering of the porphyrin with the α-subunits plane in a perpendicular geometry (Fig. 10A). […] The values ≈0 for the dissociation rate constants (Table 1) simply means that the rate is very slow and the interaction is very strong.

[6] = read-out: IC50 ChT-L (Figure S1), figure inset, semi-log plot of residual CP activity
[7] = read-out: IC50 best-fit value, ChT-L activity (Table S1), nonlinear fit of dose-response plot
[8] = read-out: IC50 T-L (Figure S1), figure inset, semi-log plot of residual CP activity
[9] = read-out: IC50 best-fit value, T-L activity (Table S1), nonlinear fit of dose-response plot
[10] = read-out: IC50 PGPH-L (Figure S1), figure inset, semi-log plot of residual CP activity
[11] = read-out: IC50 best-fit value, PGPH-L activity (Table S1), nonlinear fit of dose-response plot

| SMILES | IC50 [1, 6] [µM] | IC50 [1, 7] [µM] | IC50 [2, 8] [µM] | IC50 [2, 9] [µM] | IC50 [3, 10] [µM] | IC50 [3, 11] [µM] | inhibition mechanism ([4]; Lineweaver-Burk plot) | Ki ([4]; read-out: inhibitor affinity constant KI, Suc-LLVY-AMC 6 to 100 μM, fit with eqn (4a)) [µM] | k+I [5] | k–I [5] | off k1 (20S proteasome; 1 nM 20S, 1-5 μM H2T4) | off k2 (20S proteasome; 1 nM 20S, 1-5 μM H2T4) | on k1 (20S proteasome; 1 nM 20S, 1-5 μM H2T4) | on k2 (20S proteasome; 1 nM 20S, 1-5 μM H2T4) | k3 (20S proteasome; rate independent of porphyrin concentration) |
| --- | --- | --- | --- | --- | --- | --- | --- | --- | --- | --- | --- | --- | --- | --- | --- |
| C[n+]1ccc(-c2c3nc(c(-c4cc[n+](C)cc4)c4ccc([nH]4)c(-c4cc[n+](C)cc4)c4nc(c(-c5cc[n+](C)cc5)c5ccc2[nH]5)C=C4)C=C3)cc1 [H2T4, meso-tetrakis(4-N-methylpyridyl)-porphyrin] | 0.47 | 0.469 | 0.46 | 0.466 | 0.3 | 0.301 | competitive mechanism | 0.36 | 1.3 × 10^4 M^–1 s^–1 | 4.7 × 10^–3 s^–1 | ∼0 s^–1 | ∼0 s^–1 | 5.65 (±0.74) × 10^4 M^–1 s^–1 | 1.28 (±0.31) × 10^4 M^–1 s^–1 | 3.23 (±0.81) × 10^–3 s^–1 |
| C[n+]1cccc(-c2c3nc(c(-c4ccc[n+](C)c4)c4ccc([nH]4)c(-c4ccc[n+](C)c4)c4nc(c(-c5ccc[n+](C)c5)c5ccc2[nH]5)C=C4)C=C3)c1 [meta-H2T4, meso-tetra(3-N-metil-pyridyl) porphyrin] | 0.93 | 0.931 | 1.16 | 1.16 | 0.21 | 0.211 |  |  |  |  |  |  |  |  |  |
